Reference: the NIST ThermoML archive (doi:10.1021/je5009729)
± gives the expanded uncertainty stated by the source. One block for each compound: values may come before it.

Key:
[1] = for vapor or sublimation pressure: Gas chromatography; for Normal melting temperature / Triple point temperature: DTA
[2] = Molar enthalpy of transition or fusion; conditions: DSC

Compound: CCCCCCCCCCC/C=C\CCCCC(=O)O [(Z)-6-octadecenoic acid]
vapor or sublimation pressure ([1]; 298.15 K, Liquid): 1.13e-08 kPa

Compound: CCCCCCCC/C=C\CCCCCCCC(=O)O [(Z)-9-octadecenoic acid]
vapor or sublimation pressure ([1]; 298.15 K, Liquid): 1.01e-08 kPa

Compound: CCCCCC=CCC=CCC=CCC=CCCCC(=O)O [5,8,11,14-eicosatetraenoic acid]
vapor or sublimation pressure ([1]; 298.15 K, Liquid): 6.5e-10 kPa

Compound: CCCCCCCC/C=C\CCCCCCCCCC(=O)O [(11Z)-eicosenoic acid]
vapor or sublimation pressure ([1]; 298.15 K, Liquid): 1.18e-09 kPa

Next, values leading:

vapor or sublimation pressure ([1]; 298.15 K, Liquid): 2.2e-11 kPa
Compound: CC/C=C\C/C=C\C/C=C\C/C=C\C/C=C\C/C=C\CCC(=O)O [cis-4,7,10,13,16,19-docosahexaenoic acid]

Molar enthalpy of transition or fusion ([2]; Crystal 1): 20.2 ± 0.454 kcal/mol
Molar enthalpy of transition or fusion ([2]; Crystal 3): 1.18 ± 0.0621 kcal/mol
vapor or sublimation pressure ([1]; 298 K, Crystal): 4e-14 kPa
vapor or sublimation pressure ([1]; 298.15 K, Liquid): 1.1e-11 kPa
Normal melting temperature ([1]; Crystal 1): 83.4 ± 0.5 °C
Triple point temperature ([1]; Crystal 2): 351 ± 1 K
Triple point temperature ([1]; Crystal 3): 347 ± 1 K
Compound: CCCCCCCCCCCCCCCCCCCCCCCC(=O)O [lignoceric acid]

vapor or sublimation pressure ([1]; 298.15 K, Liquid): 6.9e-08 kPa
Compound: CCCCCC/C=C\CCCCCCCC(=O)O [cis-9-hexadecenoic acid]

Molar enthalpy of transition or fusion ([2]; Crystal 2): 21.2 ± 0.621 kcal/mol
vapor or sublimation pressure ([1]; 298.15 K, Crystal): 8e-15 kPa
vapor or sublimation pressure ([1]; 298.15 K, Liquid): 2.5e-12 kPa
Normal melting temperature ([1]; Crystal 1): 85.7 ± 0.7 °C
Triple point temperature ([1]; Crystal 2): 354.3 ± 0.5 K
Compound: CCCCCCCCCCCCCCCCCCCCCCCCCC(=O)O [hexacosanoic acid]

Molar enthalpy of transition or fusion ([2]; Crystal): 14.4 ± 0.359 kcal/mol
vapor or sublimation pressure ([1]; 298 K, Crystal): 2.7e-12 kPa
vapor or sublimation pressure ([1]; 298.15 K, Liquid): 1e-11 kPa
Normal melting temperature ([1]; Crystal): 42 ± 1 °C
Compound: CCCCCCCC/C=C\CCCCCCCCCCCCCC(=O)O [(Z)-tetracos-15-enoic acid]
